Test results taken from the supplement of paper PMC11451515.

Tested on: SEM cells
Assay: cell viability relative to DMSO control; higher = less cytotoxic
Settings: 48 h
Procedure, shortened: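 NOMO1, SEM and P12-Ichikawa leukemia cells spent at least four passages adapting to each medium before use. They were seeded at 500 cells/well (NOMO1, SEM) or 1000 cells/well (P12-Ichikawa) in 5 μl in 1536-well plates and pin-dosed with library compounds in DMSO at 11 threefold steps from 47 μM down to 0.79 nM. After 48 h at 37°C, CellTiter-Glo One luminescence was read. Viability is reported as a percentage of the DMSO wells on each plate, with cell-free wells as background.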

[1] = HPLM + 10% dialyzed FBS, 0.000781 µM
[2] = HPLM + 10% dialyzed FBS, 0.00234 µM
[3] = HPLM + 10% dialyzed FBS, 0.00702 µM
[4] = HPLM + 10% dialyzed FBS, 0.0211 µM
[5] = HPLM + 10% dialyzed FBS, 0.0632 µM
[6] = HPLM + 10% dialyzed FBS, 0.19 µM
[7] = HPLM + 10% dialyzed FBS, 0.569 µM
[8] = HPLM + 10% dialyzed FBS, 1.71 µM
[9] = HPLM + 10% dialyzed FBS, 5.12 µM
[10] = HPLM + 10% dialyzed FBS, 15.4 µM
[11] = HPLM + 10% dialyzed FBS, 46.1 µM
[12] = RPMI 5 mM glucose + 10% FBS, 0.000781 µM
[13] = RPMI 5 mM glucose + 10% FBS, 0.00234 µM
[14] = RPMI 5 mM glucose + 10% FBS, 0.00702 µM
[15] = RPMI 5 mM glucose + 10% FBS, 0.0211 µM
[16] = RPMI 5 mM glucose + 10% FBS, 0.0632 µM
[17] = RPMI 5 mM glucose + 10% FBS, 0.19 µM
[18] = RPMI 5 mM glucose + 10% FBS, 0.569 µM
[19] = RPMI 5 mM glucose + 10% FBS, 1.71 µM
[20] = RPMI 5 mM glucose + 10% FBS, 5.12 µM
[21] = RPMI 5 mM glucose + 10% FBS, 15.4 µM
[22] = RPMI 5 mM glucose + 10% FBS, 46.1 µM
[23] = RPMI 5 mM glucose + 10% dialyzed FBS, 0.000781 µM
[24] = RPMI 5 mM glucose + 10% dialyzed FBS, 0.00234 µM
[25] = RPMI 5 mM glucose + 10% dialyzed FBS, 0.00702 µM
[26] = RPMI 5 mM glucose + 10% dialyzed FBS, 0.0211 µM
[27] = RPMI 5 mM glucose + 10% dialyzed FBS, 0.0632 µM
[28] = RPMI 5 mM glucose + 10% dialyzed FBS, 0.19 µM
[29] = RPMI 5 mM glucose + 10% dialyzed FBS, 0.569 µM
[30] = RPMI 5 mM glucose + 10% dialyzed FBS, 1.71 µM
[31] = RPMI 5 mM glucose + 10% dialyzed FBS, 5.12 µM
[32] = RPMI 5 mM glucose + 10% dialyzed FBS, 15.4 µM
[33] = RPMI 5 mM glucose + 10% dialyzed FBS, 46.1 µM

Row | Structure (SMILES) | cell viability [1] [%] | cell viability [2] [%] | cell viability [3] [%] | cell viability [4] [%] | cell viability [5] [%] | cell viability [6] [%] | cell viability [7] [%] | cell viability [8] [%] | cell viability [9] [%] | cell viability [10] [%] | cell viability [11] [%] | cell viability [12] [%] | cell viability [13] [%] | cell viability [14] [%] | cell viability [15] [%] | cell viability [16] [%] | cell viability [17] [%] | cell viability [18] [%] | cell viability [19] [%] | cell viability [20] [%] | cell viability [21] [%] | cell viability [22] [%] | cell viability [23] [%] | cell viability [24] [%] | cell viability [25] [%] | cell viability [26] [%] | cell viability [27] [%] | cell viability [28] [%] | cell viability [29] [%] | cell viability [30] [%] | cell viability [31] [%] | cell viability [32] [%] | cell viability [33] [%]
1 | C#CCC(Cc1cnc2nc(N)nc(N)c2n1)c1ccc(C(=O)N[C@@H](CCC(=O)O)C(=O)O)cc1 (stereo partly drawn) | 110 | 113 | 114 | 119 | 47 | 48 | 39.2 | 36.3 | 31.9 | 38.1 | 35.1 | 113 | 122 | 120 | 118 | 90.6 | 73.3 | 74.1 | 71.9 | 66.7 | 68.1 | 68 | 105 | 114 | 110 | 107 | 27.4 | 23.5 | 24.3 | 23 | 20.3 | 22.9 | 22.3
2 | CC[C@H](C)C(=O)O[C@H]1C[C@@H](C)\C=C2\C=C/[C@H](C)[C@H](CC[C@@H]3C[C@@H](O)CC(=O)O3)[C@@H]12 | 71.1 | 85.1 | 100 | 87.9 | 90.3 | 93.8 | 56.6 | 86 | 82.6 | 59.8 | 65.7 | 51.9 | 91.1 | 92.5 | 89.8 | 93.2 | 95 | 84.8 | 81.9 | 81.2 | 63.2 | 64.5 | 80.9 | 84.6 | 106 | 92.6 | 97 | 108 | 30 | 99.8 | 98 | 71.6 | 61.1
3 | Cc1noc(N[S+](=O)([O-])c2ccc(N)cc2)c1C | 80.2 | 93.5 | 104 | 88.1 | 93.2 | 102 | 83.1 | 96.3 | 99.8 | 90.1 | 102 | 87.6 | 97.5 | 89.7 | 88.5 | 96.2 | 110 | 96 | 114 | 98 | 100 | 92.3 | 99.2 | 91.5 | 96.3 | 89.5 | 120 | 103 | 111 | 104 | 103 | 108 | 99.1
4 | CC(C)[C@H](C(=O)Nc1ccc(C(=O)NO)cc1)c1ccccc1 | – | – | – | – | – | – | – | – | – | – | – | 115 | 116 | 126 | 140 | 139 | 148 | 133 | 74.7 | 11.3 | 9.31 | 9.34 | 105 | 101 | 121 | 121 | 120 | 120 | 111 | 56.6 | 8.81 | 8.39 | 8.47
5 | c1cc2c(cc1[C@H]1OC[C@H]3[C@@H]1CO[C@@H]3c1ccc3c(c1)OCO3)OCO2 | 113 | 105 | 119 | 123 | 126 | 119 | 126 | 110 | 119 | 108 | 92.4 | 124 | 102 | 117 | 129 | 131 | 135 | 117 | 113 | 107 | 100 | 103 | 108 | 115 | 144 | 130 | 113 | 140 | 130 | 132 | 103 | 118 | 86.4
6 | Cc1nc2ccc(CN(C)c3ccc(C(=O)N[C@@H](CCC(=O)O)C(=O)O)s3)cc2c(=O)[nH]1 | 90.3 | 93.1 | 101 | 103 | 64.1 | 45 | 41.4 | 42.7 | 35.4 | 39.3 | 38.3 | 96.5 | 115 | 103 | 104 | 118 | 99 | 93 | 85.6 | 83.3 | 82.1 | 82.1 | 98.7 | 113 | 113 | 118 | 106 | 45.9 | 33.2 | 35.3 | 29.6 | 32.4 | 30.5
7 | CCOC(=O)c1c(CSc2ccccc2)n(C)c2cc(Br)c(O)c(CN(C)C)c12 | 89.7 | 94.8 | 96.4 | 109 | 96.2 | 102 | 97.3 | 103 | 82.5 | 108 | 88.6 | 107 | 114 | 109 | 103 | 104 | 128 | 125 | 129 | 103 | 101 | 63.7 | 94.9 | 114 | 101 | 104 | 111 | 97.5 | 94.7 | 109 | 113 | 109 | 70.5
8 | c1ccc2c(CN3CCNCC3)cccc2c1 | 102 | 102 | 115 | 108 | 100 | 126 | 108 | 107 | 102 | 98.8 | 98.8 | 85.5 | 104 | 98.6 | 107 | 97.4 | 101 | 97.1 | 103 | 92.7 | 101 | 105 | 97.7 | 106 | 126 | 124 | 128 | 122 | 106 | 131 | 95.7 | 103 | 84
